Experimental data reported in patent US9790221B2, “Heteroaryl compounds as IRAK inhibitors and uses thereof” (Merck Patent GmbH, priority 2014, dated 2017).
Like-named read-outs stand apart in the source and are kept apart here.

Key:
IRAK4 = IRAK4 (Homo sapiens (Human), UniProt Q9NWZ3); assay: IRAK4 enzymatic assay; assay type: biochemical
Outline: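 Radiometric streptavidin FlashPlate read: 3 h, 30° C incubation of His-TEV-IRAK4 (20 ng/well), STK1-biotin substrate (300 nM) and ATP (2 μM, [^33P]-labelled) in Hepes pH 7.0, MgCl2 10 mM, MnCl2 5 mM. Compounds from 20 µM down to 1 nM, 2% DMSO controls; reaction quenched with EDTA.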

[1] = system: TLR7 induced IL-6 secretion in human mononuclear cells (PBMC's); assay: TLR7 induced IL-6 in human PBMC's; assay type: cell-based; conditions: read-out: TLR7 induced IL-6 secretion in hPBMC's (IC50)
Outline: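 Fresh or frozen healthy-donor PBMCs preincubated 30 min at 37° C. with compound (25 uM to 0.4 nM; vehicle 0.25% DMSO) in RPMI/10% HI-FBS. Stimulated with TLR7 ligand (2 uM) for 16-18 h at 37° C.; supernatant IL-6 measured by AlphaLISA.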

[2] = molecular target: IRAK1 (His-TEV-IRAK1 (194-712)) (Homo sapiens (Human), UniProt P51617); assay: IRAK1 enzymatic assay; assay type: biochemical
Sequence of IRAK1 (His-TEV-IRAK1 (194-712)) (P51617 194-712): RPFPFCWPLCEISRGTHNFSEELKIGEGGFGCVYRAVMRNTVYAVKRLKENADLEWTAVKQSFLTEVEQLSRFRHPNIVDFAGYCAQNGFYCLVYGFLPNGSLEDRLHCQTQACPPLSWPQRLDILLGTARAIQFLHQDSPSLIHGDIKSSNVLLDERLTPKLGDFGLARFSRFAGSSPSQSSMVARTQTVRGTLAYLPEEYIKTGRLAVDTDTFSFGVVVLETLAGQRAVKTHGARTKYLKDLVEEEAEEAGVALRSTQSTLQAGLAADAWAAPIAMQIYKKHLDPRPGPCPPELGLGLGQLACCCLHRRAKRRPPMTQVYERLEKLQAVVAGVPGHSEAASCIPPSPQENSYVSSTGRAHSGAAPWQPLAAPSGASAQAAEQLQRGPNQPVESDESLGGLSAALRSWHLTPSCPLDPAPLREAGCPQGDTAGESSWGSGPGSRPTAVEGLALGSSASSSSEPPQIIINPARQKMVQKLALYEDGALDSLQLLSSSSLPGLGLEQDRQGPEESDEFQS
Outline: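 Compounds ([…] down to 1 nM) were incubated 3 h at 30° C with His-TEV-IRAK1 (194-712, 15 ng/well) and 1 μM [33P]-labelled ATP in 50 mM Hepes pH 7.0, 10 mM MgCl2. After EDTA stop and washing, the retained autophosphorylation signal was measured by scintillation in streptavidin-coated plates.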

Sequence of IRAK4 (Q9NWZ3 whole entry): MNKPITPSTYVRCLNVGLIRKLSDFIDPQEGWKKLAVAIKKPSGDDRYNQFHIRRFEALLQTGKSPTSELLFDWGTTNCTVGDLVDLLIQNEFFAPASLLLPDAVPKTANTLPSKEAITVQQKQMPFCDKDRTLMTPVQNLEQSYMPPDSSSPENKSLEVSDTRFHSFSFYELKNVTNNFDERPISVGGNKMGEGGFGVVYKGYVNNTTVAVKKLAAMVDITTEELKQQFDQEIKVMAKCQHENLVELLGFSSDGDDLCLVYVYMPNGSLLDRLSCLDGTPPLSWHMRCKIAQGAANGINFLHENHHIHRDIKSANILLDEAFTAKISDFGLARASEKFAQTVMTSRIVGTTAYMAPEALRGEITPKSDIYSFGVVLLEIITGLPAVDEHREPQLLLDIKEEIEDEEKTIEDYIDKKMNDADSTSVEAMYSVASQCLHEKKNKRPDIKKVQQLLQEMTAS

SMILES	IC50 (IRAK4) [nM]	IC50 ([1]; Homo sapiens, PBMC) [nM]	IC50 [2] [nM]	IC50 [1] [nM]
Cn1cc(-c2cccc(-c3ncc(-c4cnn(C)c4)c(N4CCC(O)CC4)n3)c2)cn1 [Example 219]	< 100	1000 to 5000	100 to 1000	
Cn1cc(-c2cccc(-c3ncc(-c4cnn(C)c4)c(N[C@H]4CC[C@@H](O)CC4)n3)c2)cn1 [Example 221]	< 100	100 to 1000	100 to 1000	
Cn1cc(-c2cccc(-c3ncc(-c4cnn(C)c4)c(NC[C@H]4CCCC[C@H]4O)n3)c2)cn1 [Example 225]	< 100	100 to 1000	100 to 1000	
Cn1cc(-c2cccc(-c3ncc(-c4cnn(C)c4)c(N[C@H]4CC[C@@H](N5CCOCC5)CC4)n3)c2)cn1 [Example 233]	< 100	100 to 1000	100 to 1000	
Cn1cc(-c2cccc(-c3ncc(-c4cnn(C)c4)c(NC4CCCC4O)n3)c2)cn1 (stereo not drawn) [Example 238]	< 100	100 to 1000	100 to 1000	
Cn1cc(-c2cccc(-c3ncc(-c4cnn(C)c4)c(N4CCC(N)CC4)n3)c2)cn1 [Example 239]	100 to 1000	100 to 1000	100 to 1000	
Cn1cc(-c2cccc(-c3ncc(-c4cnn(C)c4)c(NC45CC(CN)(C4)C5)n3)c2)cn1 [Example 242]	< 100	100 to 1000	100 to 1000	
Cc1nnc(-c2cnc(-c3cccc(-c4cnn(C)c4)c3)nc2NC2CCS(=O)(=O)CC2)s1 [Example 243]	< 100	100 to 1000	1000 to 5000	
Cn1cc(-c2cccc(-c3ncc(-c4cnn(C)c4)c(NC4CCCCC4O)n3)c2)cn1 (stereo not drawn) [Example 244]	< 100	100 to 1000	100 to 1000	
Cn1cc(-c2cccc(-c3ncc(-c4cnn(C)c4)c(NC45CC(CNS(C)(=O)=O)(C4)C5)n3)c2)cn1 [Example 245]	< 100	100 to 1000	< 100	
Cc1nnc(-c2cnc(-c3cccc(-c4cnn(C)c4)c3)nc2NC2CCCN(S(C)(=O)=O)CC2)s1 (stereo not drawn) [Example 253]	< 100	100 to 1000	< 100	
Cc1nnc(-c2cnc(-c3cccc(-c4cnn(C)c4)c3)nc2N[C@H]2CC[C@H](NS(C)(=O)=O)CC2)s1 [Example 254]	< 100	< 100	< 100	
CC(=O)NC1(CNc2nc(-c3cccc(-c4cnn(C)c4)c3)ncc2-c2cnn(C)c2)CCCCC1 [Example 256]	< 100	1000 to 5000	1000 to 5000	
Cn1cc(-c2cccc(-c3ncc(-c4cnn(C)c4)c(NC4CCS(=O)(=O)CC4)n3)c2)cn1 [Example 257]	< 100	1000 to 5000	100 to 1000	
CC(C)Nc1nc(-c2cccc(-c3cnn(C)c3)c2)ncc1-c1cnn(C)c1 [Example 260]	100 to 1000	1000 to 5000	100 to 1000	
Cn1cc(-c2cccc(-c3ncc(-c4cnn(C)c4)c(NCC4(NS(C)(=O)=O)CCCCC4)n3)c2)cn1 [Example 262]	< 100	1000 to 5000	100 to 1000	
Cn1cc(-c2cccc(-c3ncc(-c4cnn(C)c4)c(N4CCC(CNS(C)(=O)=O)C4)n3)c2)cn1 (stereo not drawn) [Example 265]	< 100	> 5000	100 to 1000	
CC(=O)NC12CC(Nc3nc(-c4cccc(-c5cnn(C)c5)c4)ncc3-c3cnn(C)c3)(C1)C2 [Example 266]	< 100	100 to 1000	< 100	

SMILES	IC50 (IRAK4) [nM]	IC50 ([1]; Homo sapiens, PBMC) [nM]	IC50 [2] [nM]	IC50 [1] [nM]
Cn1cc(-c2cccc(-c3ncc(-c4cnn(C)c4)c(NCCNS(C)(=O)=O)n3)c2)cn1 [Example 267]	< 100	100 to 1000	100 to 1000	
Cn1cc(-c2cccc(-c3ncc(-c4cnn(C)c4)c(N[C@H]4CCC[C@@H](O)[C@H]4O)n3)c2)cn1 [Example 268]	< 100	< 100	< 100	
Cn1cc(-c2cccc(-c3ncc(-c4cnn(C)c4)c(NC45CC(N)(C4)C5)n3)c2)cn1 [Example 269]	< 100	100 to 1000	100 to 1000	
Cn1cc(-c2cccc(-c3ncc(-c4cnn(C)c4)c(NC45CC(NS(C)(=O)=O)(C4)C5)n3)c2)cn1 [Example 270]	< 100	< 100	< 100	
Cn1cc(-c2cccc(-c3ncc(-c4cnn(C)c4)c(NCC(F)(F)F)n3)c2)cn1 [Example 271]	< 100	1000 to 5000	100 to 1000	
Cn1cc(-c2cccc(-c3ncc(-c4cnn(C)c4)c(NCC(F)(F)C(F)(F)C(F)(F)F)n3)c2)cn1 [Example 272]	< 100		100 to 1000	1000 to 5000
Cn1cc(-c2cccc(-c3ncc(-c4cnn(C)c4)c(N[C@H]4CC[C@H](O)[C@@H]4O)n3)c2)cn1 [Example 273]	< 100	100 to 1000	100 to 1000	
Cn1cc(-c2cccc(-c3ncc(-c4cnn(C)c4)c(NCC(O)C(F)(F)F)n3)c2)cn1 (stereo not drawn) [Example 275]	< 100	100 to 1000	100 to 1000	
Cn1cc(-c2cccc(-c3ncc(-c4cnn(C)c4)c(N[C@H]4CC[C@H](NS(=O)(=O)C5CC5)CC4)n3)c2)cn1 [Example 276]	< 100	100 to 1000	< 100	
Cn1cc(-c2cccc(-c3ncc(-c4cnn(C)c4)c(NCCS(N)(=O)=O)n3)c2)cn1 [Example 278]	< 100	100 to 1000	< 100	
Cn1cc(-c2cccc(-c3ncc(-c4cnn(C)c4)c(N[C@H]4CC[C@H](C(=O)O)CC4)n3)c2)cn1 [Example 279]	100 to 1000	> 5000	> 5000	
Cn1cc(-c2cccc(-c3ncc(-c4cnn(C)c4)c(N4CC[C@H](F)[C@@H](O)C4)n3)c2)cn1 [Example 280]	< 100	1000 to 5000	100 to 1000	
Cn1cc(-c2cccc(-c3ncc(-c4cnn(C)c4)c(NCCCS(C)(=N)=O)n3)c2)cn1 (stereo not drawn) [Example 282]	100 to 1000	> 5000	1000 to 5000	
Cn1cc(-c2cccc(-c3ncc(-c4cnn(C)c4)c(N4C[C@H](N)CC(F)(F)C4)n3)c2)cn1 [Example 283, (R)-5,5-Difluoro-1-{5-(1-methyl-1H-pyrazol-4-yl)-2-[3-(1-methyl-1H-pyrazol-4-yl)-phenyl]-pyrimidin-4-yl}-piperidin-3-ylamine]	1000 to 5000	1000 to 5000	1000 to 5000	
Cn1cc(-c2cccc(-c3ncc(-c4cnn(C)c4)c(N4C[C@@H](N)CC(F)(F)C4)n3)c2)cn1 [Example 284, (S)-5,5-Difluoro-1-{5-(1-methyl-1H-pyrazol-4-yl)-2-[3-(1-methyl-1H-pyrazol-4-yl)-phenyl]-pyrimidin-4-yl}-piperidin-3-ylamine]	< 100	100 to 1000	1000 to 5000	
Cn1cc(-c2cccc(-c3ncc(-c4cnn(C)c4)c(N[C@@H]4CCCC(F)(F)[C@H]4O)n3)c2)cn1 [Example 287, (1S,6R)-2,2-Difluoro-6-{5-(1-methyl-1H-pyrazol-4-yl)-2-[3-(1-methyl-1H-pyrazol-4-yl)-phenyl]-pyrimidin-4-ylamino}-cyclohexanol]	< 100	1000 to 5000	100 to 1000	
Cn1cc(-c2cccc(-c3ncc(-c4cnn(C)c4)c(N[C@H]4CCCC[C@@H](O)[C@H]4O)n3)c2)cn1 [Example 288, (1R,2S,3S)-3-{5-(1-Methyl-1H-pyrazol-4-yl)-2-[3-(1-methyl-1H-pyrazol-4-yl)-phenyl]-pyrimidin-4-ylamino}-cycloheptane-1,2-diol]	< 100		< 100	< 100
Cn1cc(-c2cccc(-c3ncc(-c4cnn(C)c4)c(N[C@@H]4CCCC[C@H](O)[C@@H]4O)n3)c2)cn1 [Example 289, (1S,2R,3R)-3-{5-(1-Methyl-1H-pyrazol-4-yl)-2-[3-(1-methyl-1H-pyrazol-4-yl)-phenyl]-pyrimidin-4-ylamino}-cycloheptane-1,2-diol]	< 100	100 to 1000	> 5000	
